Experimental data as given in publication PMC7413254 (Nature Communications, 2020).
Read-outs that look alike come from different tables or passages of the source.

Key:
[1] = target: PfCRT^Ecu1110 (Plasmodium falciparum, UniProt Q9N623, A220S/I356L/K76T/N326D); experiment: cell-based; type: cell-based; conditions: […]
How it was run: (§1)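 Transport measured in Xenopus oocytes expressing the transporters, 1.5 h at 27.5 °C in ND96 pH 5.5 unless noted. For trans-stimulation, VF-6 injected in 25 nL ND96 at pH 5.0–7.0 or Na^+-free (choline) buffer; intracellular levels based on ~400 nL oocyte volume. Ten oocytes per treatment, ≥4 experiments.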

[2] = target: PfCRT^3D7 (Plasmodium falciparum, UniProt Q8IBZ9); experiment: cell-based; type: cell-based
PfCRT^3D7, sequence (Q8IBZ9 59-398): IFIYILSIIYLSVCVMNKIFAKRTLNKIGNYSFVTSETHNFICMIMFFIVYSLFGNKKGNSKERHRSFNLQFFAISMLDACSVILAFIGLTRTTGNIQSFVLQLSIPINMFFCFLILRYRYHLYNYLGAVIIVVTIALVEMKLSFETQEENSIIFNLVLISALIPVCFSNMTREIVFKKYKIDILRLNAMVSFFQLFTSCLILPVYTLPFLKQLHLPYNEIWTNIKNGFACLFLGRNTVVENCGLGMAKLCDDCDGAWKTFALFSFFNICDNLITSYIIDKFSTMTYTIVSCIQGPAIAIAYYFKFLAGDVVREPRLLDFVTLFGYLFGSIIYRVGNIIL
How it was run: as §1

[3] = target: T1, PfNT1 (Plasmodium falciparum, UniProt Q8IDM6); experiment: cell-based; type: cell-based; conditions: for activity at 5000 µM: total [3H]CQ transport
T1 construct: expressed in transfected cells; host or cells: Xenopus laevis oocytes (stage V-VI), cRNA-injected
T1 sequence (Q8IDM6 whole entry): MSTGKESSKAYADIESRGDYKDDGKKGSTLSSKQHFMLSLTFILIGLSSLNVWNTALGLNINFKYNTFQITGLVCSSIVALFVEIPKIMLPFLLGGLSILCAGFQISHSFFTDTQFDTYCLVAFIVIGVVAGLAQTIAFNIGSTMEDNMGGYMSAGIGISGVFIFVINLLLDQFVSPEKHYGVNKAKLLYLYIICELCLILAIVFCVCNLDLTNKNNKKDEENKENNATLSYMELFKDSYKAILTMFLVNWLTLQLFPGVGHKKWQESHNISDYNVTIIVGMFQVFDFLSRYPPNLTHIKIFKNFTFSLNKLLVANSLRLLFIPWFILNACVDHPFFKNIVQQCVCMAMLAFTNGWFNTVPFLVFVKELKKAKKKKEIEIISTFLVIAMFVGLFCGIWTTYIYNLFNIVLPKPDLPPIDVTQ
How it was run: as §1

[4] = target: PfCRT^Dd2 (Plasmodium falciparum, UniProt Q9N623, A220S/I356T/K76T/M74I/N326S/N75E/Q271E/R371I); experiment: cell-based; type: cell-based; conditions: […]; for activity at 45000 µM: [test solute]i = 45 mM (30 mM for some solutes due to solubility)
PfCRT^Dd2, sequence (Q9N623 whole entry A220S/I356T/K76T/M74I/N326S/N75E/Q271E/R371I): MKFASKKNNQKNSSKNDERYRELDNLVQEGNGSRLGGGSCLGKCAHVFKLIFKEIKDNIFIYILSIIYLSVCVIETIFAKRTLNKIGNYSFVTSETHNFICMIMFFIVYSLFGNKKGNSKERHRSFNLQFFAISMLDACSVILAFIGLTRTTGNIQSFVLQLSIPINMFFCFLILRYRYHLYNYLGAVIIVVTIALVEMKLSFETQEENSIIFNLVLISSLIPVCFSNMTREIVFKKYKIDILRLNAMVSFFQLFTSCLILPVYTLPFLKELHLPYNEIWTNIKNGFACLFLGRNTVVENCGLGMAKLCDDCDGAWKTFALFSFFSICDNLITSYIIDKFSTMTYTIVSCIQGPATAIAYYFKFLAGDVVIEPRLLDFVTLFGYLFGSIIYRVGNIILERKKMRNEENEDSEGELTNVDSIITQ
How it was run: as §1

[5] = tested on: non-expressing oocytes; experiment: cells; type: cell-based, Xenopus laevis; conditions: Xenopus laevis, total [3H]CQ transport; for inhibition at 500 µM: [test solute] = 0.5 mM; for inhibition at 1000 µM: [test solute] = 1 mM; for inhibition at 2000 µM: [test solute] = 2 mM
How it was run: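 Radioactivity accumulated per oocyte, read by liquid scintillation after 10% SDS lysis, served as the uptake measure. Incubations ran 1.5 h at 27.5 °C in ND96 at pH 5.5, matching digestive-vacuole acidity.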

[6] = tested on: non-expressing oocytes; type: cell-based, Xenopus laevis; conditions: total [3H]CQ transport; for Uptake of [3H]CQ (% non-expressing oocyte control), trans-stimulation: non-expressing oocytes, normalised to the oocyte type control; for Uptake of [3H]CQ (% PfCRTDd2 control), trans-stimulation, non-expressing oocytes: mean ± SEM, SEM
How it was run: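 Oocytes (ten per treatment, ≥4 independent frogs/days) were preloaded by injecting VF-6 in 25 nL ND96 at pH 5.0, 5.5, 6.0 or 7.0, or Na^+-free choline buffer, then uptake run 1.5 h, 27.5 °C, ND96 pH 5.5 by default. Internal concentrations assumed ~400 nL oocyte volume.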

[7] = Oocyte, mean ± SEM, SEM, read-out: Uptake of [3H]CQ (% PfCRTDd2 control), cis-inhibition, non-expressing oocytes
[8] = non-expressing oocytes, normalised to the oocyte type control, read-out: Uptake of [3H]CQ (% non-expressing oocyte control), cis-inhibition

PfCRT^Ecu1110, sequence (Q9N623 whole entry A220S/I356L/K76T/N326D): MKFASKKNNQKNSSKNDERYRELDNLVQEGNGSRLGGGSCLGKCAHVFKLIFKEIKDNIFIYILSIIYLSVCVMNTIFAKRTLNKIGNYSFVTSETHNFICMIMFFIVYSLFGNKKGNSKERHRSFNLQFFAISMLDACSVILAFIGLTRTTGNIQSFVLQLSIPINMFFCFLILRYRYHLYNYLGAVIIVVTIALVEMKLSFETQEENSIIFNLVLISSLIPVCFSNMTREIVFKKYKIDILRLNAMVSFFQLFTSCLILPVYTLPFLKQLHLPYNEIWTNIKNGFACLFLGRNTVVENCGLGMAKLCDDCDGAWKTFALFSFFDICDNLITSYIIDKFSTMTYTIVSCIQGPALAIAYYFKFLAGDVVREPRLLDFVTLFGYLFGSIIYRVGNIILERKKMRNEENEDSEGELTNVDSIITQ

## N=C(N)NCCC[C@H](N)C(=O)O [L-arginine]
[1]; pH 5.5, read-out: Uptake of [3H]CQ (% PfCRTEcu1110 control), trans-stimulation, PfCRTEcu1110 oocytes, [test solute]i = 5 mM, total [3H]CQ transport, normalised to the oocyte type control
  activity at 5000 µM: 100 ± 3.7%
[1]; pH 5.5, read-out: Uptake of [3H]CQ (% PfCRTEcu1110 control), trans-stimulation, PfCRTEcu1110 oocytes, [test solute]i = 45 mM (30 mM for some solutes due to solubility), total [3H]CQ transport, normalised to the oocyte type control
  activity at 45000 µM: 99 ± 2.5%
[1]; read-out: Uptake of [3H]CQ (% PfCRTDd2 control), trans-stimulation, PfCRTEcu1110, total [3H]CQ transport, [test solute]i = 5 mM (intracellular), mean ± SEM, SEM
  activity at 5000 µM: 36 ± 2.1%
[1]; read-out: Uptake of [3H]CQ (% PfCRTDd2 control), trans-stimulation, PfCRTEcu1110, total [3H]CQ transport, [test solute]i = 45 mM (intracellular; 30 mM for some solutes due to solubility), mean ± SEM, SEM
  activity at 45000 µM: 35 ± 2.2%
[2]; PfCRT3D7 oocytes, [test solute]i = 5 mM, total [3H]CQ transport, normalised to the oocyte type control, read-out: Uptake of [3H]CQ (% PfCRT3D7 control), trans-stimulation
  activity at 5000 µM: 97 ± 2.2%
[2]; SEM
  [3H]CQ transport (% PfCRT3D7 control), trans-stimulation, PfCRT3D7: 0.3 ± 0.02 % PfCRT3D7 control
[2]; [test solute]i = 5 mM (intracellular), PfCRT3D7 oocytes, normalised to oocyte type control, read-out: PfCRT-mediated [3H]CQ transport, trans-stimulation (% PfCRT3D7 control)
  activity at 5000 µM: 96 ± 3.7%
[2]; SEM, read-out: Uptake of [3H]CQ (% PfCRTDd2 control), trans-stimulation, PfCRT3D7
  activity at 45000 µM: 3.3 ± 0.02%
[2]; read-out: PfCRT-mediated [3H]CQ transport, trans-stimulation (% PfCRT3D7 control)
  activity at 45000 µM: 96 ± 3.1%
[2]; read-out: Uptake of [3H]CQ (% PfCRT3D7 control), trans-stimulation
  activity at 45000 µM: 98 ± 4.4%
[2]; total [3H]CQ transport, [test solute]i = 5 mM (intracellular), mean ± SEM, SEM, read-out: Uptake of [3H]CQ (% PfCRTDd2 control), trans-stimulation, PfCRT3D7
  activity at 5000 µM: 3.3 ± 0.06%
[3]; PfNT1 oocytes, [test solute]i = 5 mM, normalised to the oocyte type control, read-out: Uptake of [3H]CQ (% PfNT1 control), trans-stimulation
  activity at 5000 µM: 98 ± 3.8%
[3]; SEM, read-out: Uptake of [3H]CQ (% PfCRTDd2 control), trans-stimulation, PfNT1
  activity at 45000 µM: 3.1 ± 0.07%
[3]; read-out: Uptake of [3H]CQ (% PfNT1 control), trans-stimulation
  activity at 45000 µM: 98 ± 3.2%
[3]; [test solute]i = 5 mM (intracellular), mean ± SEM, SEM, read-out: Uptake of [3H]CQ (% PfCRTDd2 control), trans-stimulation, PfNT1
  activity at 5000 µM: 3.3 ± 0.03%
[4]; pH 5.5, read-out: PfCRT-mediated [3H]CQ transport, trans-stimulation (% PfCRTDd2 control), [test solute]i = 5 mM (intracellular), PfCRTDd2 oocytes, normalised to oocyte type control
  activity at 5000 µM: 98 ± 2.1%
[4]; pH 5.5, read-out: Uptake of [3H]CQ (% PfCRTDd2 control), trans-stimulation, PfCRTDd2, total [3H]CQ transport, [test solute]i = 5 mM (intracellular), mean ± SEM, SEM
  activity at 5000 µM: 100 ± 3.5%
[4]; pH 5.5, read-out: Uptake of [3H]CQ (% PfCRTDd2 control), trans-stimulation, PfCRTDd2 oocytes, [test solute]i = 5 mM, total [3H]CQ transport, normalised to the oocyte type control
  activity at 5000 µM: 100 ± 3.5%
[4]; pH 5.5, read-out: Uptake of [3H]CQ (% PfCRTDd2 control), trans-stimulation, PfCRTDd2 oocytes, total [3H]CQ transport, normalised to the oocyte type control
  activity at 45000 µM: 97 ± 4.2%
[4]; pH 5.5, read-out: [3H]CQ transport (% PfCRTDd2 control), trans-stimulation, PfCRTDd2, trans-stimulation, [test solute]i = 5 mM (injected), PfCRT-mediated component (background subtracted), mean ± SEM, SEM
  activity at 5000 µM: 98 ± 2.1%
[4]; pH 5.5, read-out: [3H]CQ transport (% PfCRTDd2 control), trans-stimulation, PfCRTDd2, trans-stimulation, PfCRT-mediated component (background subtracted), mean ± SEM, SEM
  activity at 45000 µM: 95 ± 2.5%
[5]; [7]
  inhibition at 500 µM: 2.5 ± 0.06%
  inhibition at 1000 µM: 2.7 ± 0.06%
  inhibition at 2000 µM: 2.1 ± 0.1%
[5]; [8]
  inhibition at 500 µM: 99 ± 3.7%
  inhibition at 1000 µM: 99 ± 2.6%
  inhibition at 2000 µM: 98 ± 5.2%
[6]; [test solute]i = 5 mM
  Uptake of [3H]CQ (% non-expressing oocyte control), trans-stimulation: 97 ± 4.1 % non-expressing oocyte control
[6]; [test solute]i = 45 mM (30 mM for some solutes due to solubility)
  Uptake of [3H]CQ (% non-expressing oocyte control), trans-stimulation: 98 ± 3.9 % non-expressing oocyte control
[6]; [test solute]i = 5 mM (intracellular)
  Uptake of [3H]CQ (% PfCRTDd2 control), trans-stimulation, non-expressing oocytes: 2.7 ± 0.07 % PfCRTDd2 control
[6]; [test solute]i = 45 mM (intracellular; 30 mM for some solutes due to solubility)
  Uptake of [3H]CQ (% PfCRTDd2 control), trans-stimulation, non-expressing oocytes: 3.0 ± 0.01 % PfCRTDd2 control
